The values that follow come from patent US20240166626A1, “Compounds and Methods for Preventing, Treating, or Ameliorating Airway Disease” (THOMAS JEFFERSON UNIVERSITY, priority 2021, published 2024).

Common to all, as to format: cell-based
The test system of one assay is HASM cells. Nature of the assay: Human airway smooth muscle cell scratch (migration) assay. Particulars: 24 hours post scratch, 20 ng/mL PDGF, relative to PDGF alone. As to the method:
FIGS. 4A-4F: DFPQ inhibits internalization of the β2AR and protects from agonist induced desensitization in cell and tissue models. FIG. 4A: Effect of DFPQ on agonist-promoted internalization of the β2AR. HEK 293 cells stably expressing FLAG-β2AR were pre-incubated with 0.1% DMSO or 10 μM DFPQ for 30 min and then stimulated with the indicated concentrations of ISO for up to 60 min. Cells were fixed and receptor surface expression was measured by ELISA. […] Cells were lysed and cAMP production was measured by ELISA. […] FIG. 4C: Mouse airway tissue were contracted with 1 μM methacholine for 5 min and then incubated overnight with 1 μM ISO±1 μM DFPQ. Airway slices were washed, re-contracted with methacholine, and incubated with ISO for 1 hour (n=4 bronchioles). Airway contractility was measured by luminal area of bronchioles by microscopy at various times. FIG. 4D: Bar graphs represent normalized ISO-promoted relaxation from methacholine contraction on day 2 of treatment at the 25 min timepoint from 4 tracheal rings. *, p<0.05 FIG. 4E: HASM cells were scratched and incubated overnight in PDGF containing serum free media. Cells were imaged to evaluate migration into the scratched area. FIG. 4F: Densitometric analysis of migration into scratched area (n=3 experiments). ***, p<0.001; **, p<0.01
Cell culture GLOSENSOR™ cells (Promega) were maintained in Dulbecco's modified Eagle's medium (DMEM) containing 10% fetal bovine serum (FBS) and 200 μg/ml Hygromycin B. […]® ADRB2 cells (DiscoveRx) were maintained with the AssayComplete™ Cell Culture kit (DiscoveRx catalog #92-3107G). […] Cells were read every three minutes for 18 minutes on a PolarStar Optima plate reader (BMG) to establish peak signal. ISO was added to each well to a final concentration of 1 μM, and luminescence was determined in kinetic mode at room temperature (23-25° C.). Response was analyzed relative to forskolin (7 μM) and alprenolol (1 μM) as positive and negative controls, respectively. […] Luminescence was determined at room temperature (23-25° C.) on a PolarStar Optima plate reader (BMG). […]

The target in assay [1] is T1, β2AR (Homo sapiens, UniProt P07550). In words: […] high throughput assay for β-arrestin recruitment to β2AR. Particulars: PathHunter, ISO-promoted β-arrestin2 recruitment. Background: Activated receptors often draw arrestin, which recruitment assays turn into a signal.
Method: (§1) HEK 293 cells stably overexpressing β2AR included 250 μg/ml G418. Cells were incubated at 37° C. in a humidified incubator with 5% CO2. High throughput assay for cAMP production. […] 0.25 μL of orthogonally compressed libraries from the Lankenau Chemical Genomics Center (LCGC) were transferred into plates using a high-density replication tool and allowed to incubate with cells for one hour at 37° C. Cells were read every three minutes for 18 minutes on a PolarStar Optima plate reader (BMG) to establish peak signal. ISO was added to each well to a final concentration of 1 μM, and luminescence was determined in kinetic mode at room temperature (23-25° C.). Response was analyzed relative to forskolin (7 μM) and alprenolol (1 μM) as positive and negative controls, respectively. High throughput assay for β-arrestin recruitment to β2AR. […] 0.25 μL of orthogonally compressed libraries from the Lankenau Chemical Genomics Center (LCGC) were transferred into plates using a high-density replication tool and allowed to incubate with cells for 45 minutes at 37° C. ISO (5 μL of 5 μM stock in cell plating medium) was added to each well to a final concentration of 1 μM, and cells were incubated for 70 minutes at 37° C. Plates were removed from the incubator, and 12.5 μL of […] ® detection solution (DiscoveRx catalog #93-0001) was added to each well. Plates were incubated in the dark at room temperature for one hour. Luminescence was determined at room temperature (23-25° C.) on a PolarStar Optima plate reader (BMG). Response was analyzed relative to vehicle (DMSO) and alprenolol (1 μM) as positive and negative controls, respectively. Screening data analysis and IC50 determination. Negative control signal was subtracted from all data and responses were normalized relative to full response (positive control minus negative control). Relative assay bias was calculated from the ratio of normalized cAMP and arrestin recruitment responses. Wells from orthogonally-compressed libraries displaying Gs-bias (negative allosteric modulators of arrestin recruitment and positive allosteric modulators of cAMP production, excluding inverse agonists) were deconvoluted to identify compounds for follow-up analysis.
Assay [2] has as its target T1, β2AR. In words: GLOSENSOR cAMP production assay (bias = GloSensor IC50:PathHunter IC50). Particulars: GloSensor IC50:PathHunter IC50 ratio.
Method: as §1
Where [3] appears, read: Table 2, scaffold drawing 253, R1/R2 substituents.
Setting [4] is: Table 3, scaffold drawing 254, R1/R3 substituents.

T1 sequence (P07550 whole entry): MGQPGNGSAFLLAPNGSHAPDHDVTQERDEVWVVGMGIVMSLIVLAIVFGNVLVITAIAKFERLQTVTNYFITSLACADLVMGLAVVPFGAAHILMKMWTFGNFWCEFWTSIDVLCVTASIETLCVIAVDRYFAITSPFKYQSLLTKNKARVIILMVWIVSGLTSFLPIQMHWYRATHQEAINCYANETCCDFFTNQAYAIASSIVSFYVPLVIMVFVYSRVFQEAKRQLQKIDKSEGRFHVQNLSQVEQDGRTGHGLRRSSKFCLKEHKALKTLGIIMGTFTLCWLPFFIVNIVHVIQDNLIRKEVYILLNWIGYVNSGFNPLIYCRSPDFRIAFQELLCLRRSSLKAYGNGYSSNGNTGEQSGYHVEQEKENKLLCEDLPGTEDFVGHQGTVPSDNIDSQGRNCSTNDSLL

As for `CC(C)NCC(O)c1ccc(O)c(O)c1` (stereo not shown) [ISO, isoproterenol], the “HASM cell migration into scratched area” value with HASM cells is recorded as “reduced migration”.
By IC50 is commonly meant the concentration that inhibits the measured activity by half. Low values mean greater potency, high ones weaker potency. In the case of `c1ccc2c(NC3CCCCC3)nc(NC3CCCCC3)nc2c1` [cyclohexyl / N/A], at β2AR [1] (setting [3]), the IC50 came to 4 ± 1 µM. Also, the Arrestin fold bias at β2AR [2] (Table 2) was above 10.
The corresponding values for `Clc1ccc(Nc2nc(NC3CCCCC3)c3ccccc3n2)cc1Cl` [m,p-dichlorophenyl / N/A] are 3 ± 0.7 µM and above 100.
Take `Fc1ccc(Nc2nc(NC3CCCCC3)c3cc(Br)ccc3n2)cc1F` [m,p-difluorophenyl / 6-bromo]: half-maximal inhibition against β2AR [1] (setting [3]) (IC50) required 0.03 ± 0.02 µM. In addition, at β2AR [2] (Table 2), the Arrestin fold bias is above 900.
The corresponding values for `Fc1ccc(Nc2nc(NC3CCCCC3)c3cc(Cl)ccc3n2)cc1F` [m,p-difluorophenyl / 6-chloro] are 0.12 ± 0.05 µM and above 400.
With `Cc1ccc2nc(Nc3ccc(F)c(F)c3)nc(NC3CCCCC3)c2c1` [m,p-difluorophenyl / 6-methyl], the half-inhibitory concentration (IC50) against β2AR [1] (setting [3]) came out at 0.36 ± 0.18 µM. The Arrestin fold bias at β2AR [2] (Table 2) was above 45.
For `Fc1ccc(Nc2nc(NC3CCCCC3)c3cc(C(F)(F)F)ccc3n2)cc1F` [m,p-difluorophenyl / 6-trifluoromethyl], the Arrestin fold bias on β2AR [2] (Table 2) is recorded as above 1000.
The compound `COc1ccc(Nc2nc(NC3CCCCC3)c3ccccc3n2)cc1OC` [m,p-dimethoxyphenyl / N/A] showed a concentration for half-maximal inhibition (IC50) on β2AR [1] (setting [3]) of 14 ± 3 µM. The Arrestin fold bias on β2AR [2] (Table 2) is reported as above 7.
The compound `Clc1cccc(CNc2nc(NC3CCCCC3)c3ccccc3n2)c1` [m-chlorobenzyl / N/A] yielded a concentration for half-maximal inhibition (IC50) against β2AR [1] (setting [3]) of 21 ± 2 µM. For the same compound, the Arrestin fold bias entry at β2AR [2] (Table 2) is listed as “No”.
The corresponding values for `Clc1cccc(Nc2nc(NC3CCCCC3)c3ccccc3n2)c1` [m-chlorophenyl / N/A] are 6 ± 0.8 µM and above 10.
With `CC1CCCC(Nc2nc(Nc3cc(Cl)cc(Cl)c3)nc3ccccc23)C1` (stereo not shown) [m-dichlorophenyl / 3-methylcyclohexyl], the IC50 against β2AR [1] (setting [4]) was determined as 8 ± 5 µM. Moreover, the Arrestin fold bias at β2AR [2] (Table 3) was above 10.
As to `Clc1cc(Cl)cc(Nc2nc(NCc3ccccc3)c3ccccc3n2)c1` [m-dichlorophenyl / benzyl], the IC50 against β2AR [1] (setting [4]) amounted to 30 ± 4 µM. In addition, on β2AR [2] (Table 3), the Arrestin fold bias entry is “No”.
`Clc1cc(Cl)cc(Nc2nc(NC3CCCC3)c3ccccc3n2)c1` [m-dichlorophenyl / cyclopentyl] registered a half-maximal inhibitory concentration (IC50) at β2AR [1] (setting [4]) of 9 ± 3 µM. The Arrestin fold bias at β2AR [2] (Table 3) was around 2.
Regarding `Fc1cc(F)cc(Nc2nc(NC3CCCCC3)c3ccccc3n2)c1` [m-difluorophenyl / N/A], at β2AR [1] (setting [3]), half-maximal inhibition (IC50) required 0.2 ± 0.05 µM. Further, on β2AR [2] (Table 2), the Arrestin fold bias is above 200.
The corresponding values for `FC(F)(F)c1cccc(Nc2nc(NC3CCCCC3)c3ccccc3n2)c1` [m-trifluoromethylphenyl / N/A] are 3 ± 1 µM and around 3.
The corresponding values for `Clc1ccc(Nc2nc(NC3CCCCC3)c3ccccc3n2)cc1` [p-chlorophenyl / N/A] are 0.8 ± 0.2 µM and above 100.
At β2AR [1] (setting [3]), `Fc1ccc(Nc2nc(NC3CCCCC3)c3ccccc3n2)cc1` [p-fluorophenyl / N/A] had a concentration for half-maximal inhibition (IC50) of 0.23 ± 0.07 µM. In addition, on β2AR [2] (Table 2), the Arrestin fold bias is given as above 200.
On to `Cc1ccc(CNc2nc(NC3CCCCC3)c3ccccc3n2)cc1` [p-methylbenzyl / N/A], for which the IC50 against β2AR [1] (setting [3]) came out at 8 ± 2 µM. Further, on β2AR [2] (Table 2), the Arrestin fold bias was around 4.
Consider `c1ccc(Nc2nc(NC3CCCCC3)c3ccccc3n2)cc1` [phenyl / N/A], for which, at β2AR [1] (setting [3]), the IC50 came out at 3 ± 0.7 µM. In addition, at β2AR [2] (Table 2), the Arrestin fold bias was above 100.
As for `OCc1cc(C(O)CNCCCCCCOCCCCc2ccccc2)ccc1O` (stereo not shown) [salmeterol], the “HASM cell migration into scratched area” value with HASM cells is “reduced migration”.
